Several values for one entry are separate records, joined by “and”; a condition that tells them apart may be missing. Equal entries are not always repeated.
Tested on: Apoprotein E deficient mice
Experiment: Plasma lipid analysis using an autoanalyzer (TC, Trigs, PL, FC, CE by calculation)
Type: in vivo
Parameters: TC, plasma / FC, plasma / CE, plasma / Trigs, plasma / PL, plasma / TC / FC / CE / Trigs / PL: unit not given here
Settings: for CE: plasma cholesterol ester; for FC: plasma free cholesterol; for PL: plasma phospholipid; for TC: plasma total cholesterol; for Trigs: plasma triglycerides
Source text: Apoprotein E deficient mice (Jackson Laboratories, 600 Main Street, Bar Harbor, Me.) were used in this study. The mice were male, 7-8 weeks of age, and between 18-20 g in weight. An initial total cholesterol measurement was made on 30 mice, and the mice were grouped into two groups of 15 to match the total cholesterol measurements. Both groups were fed a “western diet” (40 kcal % butterfat, 0.15% [wt/wt] cholesterol, Harlan Teklad diet TD-88137). Starting at t=0, the control group of 15 mice received vehicle only (phosphate buffered saline at pH 7.4), while the test group of 15 mice received aromatic-cationic peptide reconstituted in phosphate buffered saline. Body weights of the mice were recorded weekly, and mortality checks were performed daily.
The aromatic-cationic peptide D-Arg-2′6′-Dmt-Lys-Phe-NH2 (sterile lyophilized powder, reconstituted in phosphate buffered saline) was tested. For the 12-week study, test mice received a single, daily dose of the peptide, subcutaneously at 1 mg/kg. Control mice received a single daily dose of vehicle.
Experimental Protocol/Data Collection. Blood was collected every four weeks (orbital plexis) under isoflurane anesthesia (3%) and blood lipids were determined. Plasma lipid analysis was conducted for both groups at t=0, 4, […], 8, and 12 weeks. Plasma lipid analysis using an autoanalyzer included total cholesterol (TC), triglycerides (Trigs), phospholipids (PL), free cholesterol (FC), and cholesterol ester (CE, by calculation). Gel electrophoresis was used to measure levels of high-density lipoprotein cholesterol (HDL-C), low-density lipoprotein cholesterol (LDL-C), and very low-density lipoprotein cholesterol (VLDL-C).

[1] = Week 0 (t=0, start of dosing), individual mouse of test group
[2] = Week 0, group average of test group
[3] = at 4, 8 and 12 week time points, versus vehicle
[4] = week 4, individual test mouse (sample #16-30), listed as aromatic-cationic peptide
[5] = week 8, individual test mouse (sample #16-30), listed as aromatic-cationic peptide
[6] = week 12, AVE of 15 test animals
[7] = week 12, individual test mouse (sample #16-30), listed as aromatic-cationic peptide

In the case of D-Arg-2′6′-Dmt-Lys-Phe-NH2, the “FC, plasma” value [1] is reported as 119 and 121 and 134 (2×) and 110 and 116 and 131 and 129 and 184 and 113 and 139 and 170 and 151 and 159 and 220, the “PL, plasma” value [1] is reported as 267 (3×) and 308 and 255 and 306 and 298 and 369 and 238 and 320 and 313 and 332 and 343 and 338 and 413 and the “TC, plasma” value [1] is reported as 302 (2×) and 318 and 376 and 323 and 335 and 369 and 550 and 309 and 409 and 431 and 552 and 457 and 490 and 808. For the same substance, the “Trigs, plasma” value [1] was 75 and 88 (3×) and 117 and 96 and 71 and 138 and 167 and 136 and 151 and 191 and 188 and 154 and 353, the “CE, plasma” value (Week 0 (t=0, start of dosing), individual mouse of test group, by calculation) was 183 and 197 and 242 and 192 and 207 and 204 and 240 and 366 and 196 and 270 and 297 and 382 and 306 and 331 and 588 and the “FC, plasma, AVE” value [2] was 142. The “PL, plasma, AVE” value [2] was 309, the “TC, plasma, AVE” value [2] was 422 and the “Trigs, plasma, AVE” value [2] was 140. The “CE, plasma, AVE” value (Week 0, group average of test group, by calculation) was 280, the “plasma cholesterol ester, in words” value [3] was “reduces” and the “plasma free cholesterol, in words” value [3] was “reduces”. The “plasma phospholipid levels, in words” value [3] was “reduces”, the “plasma total cholesterol, in words” value [3] was “reduces” and the “plasma triglycerides, in words” value [3] was “reduces”. For the same substance, the CE (week 4, AVE of 15 test animals) was 610, the CE [4] was 491 and 580 and 622 and 731 and 626 and 417 and 574 and 660 and 515 and 536 and 630 and 761 and 581 and 732 and 701 and the CE (week 8, AVE of 15 test animals) was 932. The CE [5] was 940 and 710 and 1119 and 865 and 1153 and 653 and 714 and 1085 and 715 and 670 and 1073 and 1048 and 839 and 1130 and 1267, the CE [6] was 681 and the CE [7] was 607 and 335 and 597 and 640 and 1002 and 477 and 445 and 476 and 675 and 687 and 960 and 869 and 339 and 904 and 1201. The FC (week 4, AVE of 15 test animals) was 387, the FC [4] was 308 and 344 and 354 (2×) and 408 and 412 and 256 and 366 and 386 and 320 and 286 and 396 and 462 and 516 and 636 and the FC (week 8, AVE of 15 test animals) was 350. For the same substance, the FC [5] was 322 and 294 (2×) and 386 and 318 and 392 and 290 and 388 and 308 (2×) and 286 and 362 and 366 and 404 and 530, the FC [6] was 322 and the FC [7] was 291 and 205 and 287 and 296 and 418 and 242 and 229 and 269 and 315 and 312 and 419 and 386 and 219 and 413 and 535. The PL (week 4, AVE of 15 test animals) was 514, the PL [4] was 422 and 482 and 452 and 560 and 526 and 320 and 506 and 556 and 446 and 416 and 516 and 580 and 510 and 666 and 750 and the PL (week 8, AVE of 15 test animals) was 493. For the same substance, the PL [5] was 416 and 456 and 474 and 448 and 516 (2×) and 424 and 480 and 488 and 436 and 440 and 556 and 470 and 540 and 728, the PL [6] was 434 and the PL [7] was 366 and 318 and 320 and 432 and 491 and 321 and 363 and 394 and 374 and 423 and 536 and 521 and 340 and 575 and 741. The TC (week 4, AVE of 15 test animals) was 997, the TC [4] was 799 and 924 and 976 and 1139 and 1038 and 673 and 940 and 1046 and 835 and 822 and 1026 and 1223 and 935 and 1248 and 1337 and the TC (week 8, AVE of 15 test animals) was 1282. The TC [5] was 1262 and 1004 and 1505 and 1183 and 1545 and 943 and 1008 and 1473 and 1023 and 956 and 1435 and 1414 and 1147 and 1534 and 1797, the TC [6] was 1003 and the TC [7] was 898 and 540 and 884 and 937 and 1420 and 719 and 674 and 745 and 990 and 999 and 1379 and 1255 and 558 and 1317 and 1736. For the same substance, the Trigs (week 4, AVE of 15 test animals) was 58, the Trigs [4] was 18 (2×) and 39 and 28 and 85 and 59 (2×) and 46 and 108 and 33 and 44 (2×) and 67 and 80 and 144 and the Trigs (week 8, AVE of 15 test animals) was 57. The Trigs [5] was 34 (3×) and 31 (2×) and 51 (2×) and 48 and 53 and 43 and 75 and 63 and 39 and 67 and 195, the Trigs [6] was 55 and the Trigs [7] was 27 and 49 and 10 and 37 (2×) and 18 and 39 (2×) and 13 and 25 and 74 and 89 and 97 and 112 and 158.
